Laboratory results as given in patent publication US10399932B2, “Inhibitors of indoleamine-2,3-dioxygenase for the treatment of cancer” (BRISTOL-MYERS SQUIBB COMPANY, priority 2015, dated 2019).

Molecular target: human IDO1 (Homo sapiens, UniProt P14902)
Assay: Assessment of human IDO-1 inhibitory activity in Hela cells (Interferon-gamma activated, Ehrlich reagent, absorbance at 490 nm)
Type: cell-based
Parameters: endogenous in cells; host or cells: HeLa cells stimulated with interferon-gamma
Conditions: 18 hours
In short: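 HeLa cells were preincubated with compound for 1 h at 37 °C, then stimulated with human IFN-γ (10 ng/ml final) or murine IFN-γ (5 ng/ml final) for 18 h. Kynurenine was read after TCA (3% final, 50 °C for 30 min) and Ehrlich reagent at A490. For IC50, unstimulated wells were set as 100% inhibition and IFN-γ alone as 0%.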

human IDO1, sequence (P14902 whole entry): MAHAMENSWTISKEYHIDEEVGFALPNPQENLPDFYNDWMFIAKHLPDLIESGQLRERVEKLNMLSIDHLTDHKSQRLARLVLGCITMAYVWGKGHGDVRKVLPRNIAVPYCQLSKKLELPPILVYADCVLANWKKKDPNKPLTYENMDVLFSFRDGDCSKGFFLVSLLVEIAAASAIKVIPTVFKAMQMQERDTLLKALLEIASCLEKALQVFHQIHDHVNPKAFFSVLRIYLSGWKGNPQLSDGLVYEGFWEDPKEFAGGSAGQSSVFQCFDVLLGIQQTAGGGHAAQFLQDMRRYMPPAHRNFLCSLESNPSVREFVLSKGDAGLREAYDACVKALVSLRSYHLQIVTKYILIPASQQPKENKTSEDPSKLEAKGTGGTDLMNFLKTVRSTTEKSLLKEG

For `CCN(c1ccc([C@@H](COC)CC(=O)O)cc1NC(=O)Nc1ccc(C#N)cc1)C1CCOCC1` [Example 422 E1, (S)-3-(3-(3-(4-Cyanophenyl)ureido)-4-(ethyl(tetrahydro-2H-pyran-4-yl)amino)phenyl)-4-methoxybutanoic acid], the IC50 was over 50 nM.
Compound `CCN(c1cc(F)c(C(COC)CC(=O)O)cc1Nc1ccc(Cl)cc1)C1CCOCC1` (stereo not drawn) [Example 845, 3-(5-((4-chlorophenyl)amino)-4-(ethyl(tetrahydro-2H-pyran-4-yl)amino)-2-fluorophenyl)-4-methoxybutanoic acid] has an IC50 of under 50 nM.
With “(R)-3-(3-((4-chlorophenyl)amino)-4-((1,1-dioxidotetrahydro-2H-thiopyran-4-yl)(ethyl)amino)phenyl)-4-isopropoxybutanoic acid [Example 330]” the IC50 was under 5 nM.
In the case of “(R)-3-(3-((4-cyano-3-methylphenyl)amino)-4-(ethyl(tetrahydro-2H-pyran-4-yl)amino)phenyl)-4-methoxybutanoic acid [Example 391]”, the IC50 is reported as under 50 nM.
With “(R)-3-(4-((1,1-dioxidotetrahydro-2H-thiopyran-4-yl)(ethyl)amino)-3-((2-ethoxypyrimidin-5-yl)amino)phenyl)-4-isopropoxybutanoic acid [Example 333]” the IC50 was over 50 nM.
With “(R)-3-(4-((1,1-dioxidotetrahydro-2H-thiopyran-4-yl)(ethyl)amino)-3-((2-methoxypyrimidin-5-yl)amino)phenyl)-4-isopropoxybutanoic acid [Example 332]” the IC50 was over 50 nM.
“(R)-3-(4-((1,1-dioxidotetrahydro-2H-thiopyran-4-yl)(ethyl)amino)-3-((4-fluorophenyl)amino)phenyl)-4-isopropoxybutanoic acid [Example 331]” was tested, and the IC50 was under 50 nM.
“(R)-3-(4-(ethyl(tetrahydro-2H-pyran-4-yl)amino)-3-((2-(tetrahydro-2H-pyran-4-yl)pyrimidin-5-yl)amino)phenyl)-4-methoxybutanoic acid [Example 403]” showed an IC50 of over 50 nM.
With “(S)-3-(3-((4-chlorophenyl)amino)-4-((1,1-dioxidotetrahydro-2H-thiopyran-4-yl)(ethyl)amino)phenyl)-4-isopropoxybutanoic acid [Example 325]” the IC50 was under 5 nM.
Work on “(S)-3-(4-((1,1-dioxidotetrahydro-2H-thiopyran-4-yl)(ethyl)amino)-3-((2-ethoxypyrimidin-5-yl)amino)phenyl)-4-isopropoxybutanoic acid [Example 328]” yielded an IC50 of over 50 nM.
For “(S)-3-(4-((1,1-dioxidotetrahydro-2H-thiopyran-4-yl)(ethyl)amino)-3-((2-methoxypyrimidin-5-yl)amino)phenyl)-4-isopropoxybutanoic acid [Example 327]”, the IC50 was over 50 nM.
Work on “(S)-3-(4-(ethyl(tetrahydro-2H-pyran-4-yl)amino)-3-((2-(tetrahydro-2H-pyran-4-yl)pyrimidin-5-yl)amino)phenyl)-4-methoxybutanoic acid [Example 366]” yielded an IC50 of over 50 nM.
